How the values were obtained:
Guinea pig H2 = Guinea pig H2 (Cavia porcellus, UniProt P47747); test: Radioligand binding: Guinea pig H2
[1] = target: Rat α4β2 nAChR (α-BGTX-insensitive) (Rattus norvegicus, UniProt P09483+P12390); test: Radioligand binding: Rat α4β2 nAChR
Rat 5-HT1B = Rat 5-HT1B (Rattus norvegicus, UniProt P28564); test: Radioligand binding: Rat 5-HT1B
Human CB1 = Human CB1 (Homo sapiens, UniProt P21554); test: Radioligand binding: Human CB1
Guinea pig κ kappa = Guinea pig κ kappa (Cavia porcellus, UniProt P41144); test: Radioligand binding: Guinea pig κ opiate receptor
K+V channel = assay type: binding; settings: [125I]-α-dendrotoxin 0.01 nM
Human 5-HT2C = Human 5-HT2C (Homo sapiens, UniProt P28335); test: Radioligand binding: Human 5-HT2C
Human NK1 = Human NK1 (Homo sapiens, UniProt P25103); test: Radioligand binding: Human NK1
rat esophagus = test: Rat esophageal relaxation; assay type: in vivo; settings: cumulative i.d. dosing, anesthetized rats
[2] = both, human, in vivo, 0.5 mg
[3] = system: canine antrum, duodenum, and jejunum; test: Dog gastrointestinal contractility; assay type: in vivo; settings: oral, conscious fasted dogs
Human μ = Human μ (Homo sapiens, UniProt P35372); test: Radioligand binding: Human μ opiate receptor
Human β1 = Human β1 (Homo sapiens, UniProt P08588); test: Radioligand binding: Human β1
Guinea pig H1 = Guinea pig H1 (Cavia porcellus, UniProt P31389); test: Radioligand binding: Guinea pig H1
Human ETB = Human ETB (Homo sapiens, UniProt P24530); test: Radioligand binding: Human ETB
SK+Ca channel = test: Radioligand binding: SK+Ca channel; settings: [125I]-apamin 0.004 nM
[4] = read-out: % Inhibition of specific binding (1 μM)

Rat α4β2 nAChR (α-BGTX-insensitive), sequence (P09483 31-630): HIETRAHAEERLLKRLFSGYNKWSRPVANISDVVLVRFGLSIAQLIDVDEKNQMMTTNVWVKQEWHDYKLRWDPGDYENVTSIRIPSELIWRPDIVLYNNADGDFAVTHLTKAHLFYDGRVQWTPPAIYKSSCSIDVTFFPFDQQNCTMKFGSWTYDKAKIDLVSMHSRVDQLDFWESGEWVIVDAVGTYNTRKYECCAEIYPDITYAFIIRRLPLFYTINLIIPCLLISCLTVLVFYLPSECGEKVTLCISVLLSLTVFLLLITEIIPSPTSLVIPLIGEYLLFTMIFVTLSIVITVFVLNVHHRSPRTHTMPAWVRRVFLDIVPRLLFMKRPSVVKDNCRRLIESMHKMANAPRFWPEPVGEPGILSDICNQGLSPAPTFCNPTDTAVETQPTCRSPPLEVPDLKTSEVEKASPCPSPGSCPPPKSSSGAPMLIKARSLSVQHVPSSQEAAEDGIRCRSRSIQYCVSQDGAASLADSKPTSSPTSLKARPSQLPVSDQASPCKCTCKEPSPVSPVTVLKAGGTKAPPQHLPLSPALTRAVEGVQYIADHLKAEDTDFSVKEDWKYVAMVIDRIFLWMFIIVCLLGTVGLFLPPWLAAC
Rat α4β2 nAChR (α-BGTX-insensitive), sequence (P12390 25-500): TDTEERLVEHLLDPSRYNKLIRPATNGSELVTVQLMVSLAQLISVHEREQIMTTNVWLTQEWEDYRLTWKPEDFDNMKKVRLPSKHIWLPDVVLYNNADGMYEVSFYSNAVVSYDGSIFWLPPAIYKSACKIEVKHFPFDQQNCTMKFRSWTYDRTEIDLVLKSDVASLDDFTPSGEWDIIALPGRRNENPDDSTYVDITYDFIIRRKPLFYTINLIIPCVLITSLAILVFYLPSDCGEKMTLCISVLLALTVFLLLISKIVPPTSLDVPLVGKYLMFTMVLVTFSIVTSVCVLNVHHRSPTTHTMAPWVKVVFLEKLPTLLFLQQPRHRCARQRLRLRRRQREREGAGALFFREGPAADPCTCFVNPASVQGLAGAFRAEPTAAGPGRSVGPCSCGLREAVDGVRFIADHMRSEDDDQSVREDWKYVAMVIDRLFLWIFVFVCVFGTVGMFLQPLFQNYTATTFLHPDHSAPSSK
Guinea pig H2, sequence (P47747 whole entry): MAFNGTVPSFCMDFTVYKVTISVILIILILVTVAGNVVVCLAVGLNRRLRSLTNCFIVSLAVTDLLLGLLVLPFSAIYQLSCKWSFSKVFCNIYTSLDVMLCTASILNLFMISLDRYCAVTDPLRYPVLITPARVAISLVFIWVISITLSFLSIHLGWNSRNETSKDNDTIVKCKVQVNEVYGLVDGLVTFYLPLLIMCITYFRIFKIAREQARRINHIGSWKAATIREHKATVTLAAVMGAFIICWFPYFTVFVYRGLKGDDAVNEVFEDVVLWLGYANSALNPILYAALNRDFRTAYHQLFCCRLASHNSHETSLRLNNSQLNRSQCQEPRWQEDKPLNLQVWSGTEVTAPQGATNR
Guinea pig κ kappa, sequence (P41144 whole entry): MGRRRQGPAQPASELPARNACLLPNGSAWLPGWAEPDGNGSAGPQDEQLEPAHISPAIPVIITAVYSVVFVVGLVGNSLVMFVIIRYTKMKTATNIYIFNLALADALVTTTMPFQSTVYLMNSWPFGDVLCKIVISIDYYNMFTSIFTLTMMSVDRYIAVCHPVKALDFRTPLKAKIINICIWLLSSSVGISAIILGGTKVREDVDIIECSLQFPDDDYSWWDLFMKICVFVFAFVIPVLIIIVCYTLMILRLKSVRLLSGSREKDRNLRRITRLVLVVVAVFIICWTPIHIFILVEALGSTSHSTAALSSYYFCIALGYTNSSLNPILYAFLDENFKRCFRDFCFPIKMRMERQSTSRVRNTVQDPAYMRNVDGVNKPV
Human NK1, sequence (P25103 whole entry): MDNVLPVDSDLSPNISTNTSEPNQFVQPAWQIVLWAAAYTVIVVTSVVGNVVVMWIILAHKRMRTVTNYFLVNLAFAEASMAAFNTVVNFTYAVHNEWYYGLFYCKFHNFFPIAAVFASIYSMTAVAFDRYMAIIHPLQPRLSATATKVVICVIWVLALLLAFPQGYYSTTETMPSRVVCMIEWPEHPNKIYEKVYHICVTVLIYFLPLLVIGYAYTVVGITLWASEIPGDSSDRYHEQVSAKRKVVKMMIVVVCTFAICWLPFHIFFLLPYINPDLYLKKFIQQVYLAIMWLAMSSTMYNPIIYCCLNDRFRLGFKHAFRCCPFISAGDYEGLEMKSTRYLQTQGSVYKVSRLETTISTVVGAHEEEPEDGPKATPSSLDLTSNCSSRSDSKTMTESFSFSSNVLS
Human ETB, sequence (P24530 27-442): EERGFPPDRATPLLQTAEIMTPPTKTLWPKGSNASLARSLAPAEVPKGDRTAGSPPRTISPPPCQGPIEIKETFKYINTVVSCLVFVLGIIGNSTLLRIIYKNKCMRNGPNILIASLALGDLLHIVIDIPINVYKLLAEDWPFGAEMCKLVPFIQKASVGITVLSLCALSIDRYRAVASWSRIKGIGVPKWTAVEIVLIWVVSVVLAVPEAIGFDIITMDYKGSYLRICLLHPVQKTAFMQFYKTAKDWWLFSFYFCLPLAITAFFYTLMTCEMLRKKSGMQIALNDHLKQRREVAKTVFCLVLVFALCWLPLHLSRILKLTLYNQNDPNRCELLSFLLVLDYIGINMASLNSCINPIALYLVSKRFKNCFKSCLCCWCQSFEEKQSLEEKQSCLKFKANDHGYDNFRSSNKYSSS
Guinea pig H1, sequence (P31389 whole entry): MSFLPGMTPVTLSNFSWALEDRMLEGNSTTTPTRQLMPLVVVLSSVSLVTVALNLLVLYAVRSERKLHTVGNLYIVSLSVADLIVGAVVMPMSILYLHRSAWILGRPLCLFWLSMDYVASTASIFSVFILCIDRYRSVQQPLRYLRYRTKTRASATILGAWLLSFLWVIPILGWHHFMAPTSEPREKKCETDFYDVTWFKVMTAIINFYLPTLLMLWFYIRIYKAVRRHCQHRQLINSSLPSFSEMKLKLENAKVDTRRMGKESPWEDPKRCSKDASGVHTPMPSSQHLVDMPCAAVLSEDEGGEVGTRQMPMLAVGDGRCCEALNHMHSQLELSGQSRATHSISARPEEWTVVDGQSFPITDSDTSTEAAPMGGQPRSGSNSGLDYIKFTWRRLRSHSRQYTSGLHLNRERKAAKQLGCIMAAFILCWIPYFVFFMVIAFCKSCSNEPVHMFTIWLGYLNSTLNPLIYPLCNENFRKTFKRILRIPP
Human 5-HT2C, sequence (P28335 33-458): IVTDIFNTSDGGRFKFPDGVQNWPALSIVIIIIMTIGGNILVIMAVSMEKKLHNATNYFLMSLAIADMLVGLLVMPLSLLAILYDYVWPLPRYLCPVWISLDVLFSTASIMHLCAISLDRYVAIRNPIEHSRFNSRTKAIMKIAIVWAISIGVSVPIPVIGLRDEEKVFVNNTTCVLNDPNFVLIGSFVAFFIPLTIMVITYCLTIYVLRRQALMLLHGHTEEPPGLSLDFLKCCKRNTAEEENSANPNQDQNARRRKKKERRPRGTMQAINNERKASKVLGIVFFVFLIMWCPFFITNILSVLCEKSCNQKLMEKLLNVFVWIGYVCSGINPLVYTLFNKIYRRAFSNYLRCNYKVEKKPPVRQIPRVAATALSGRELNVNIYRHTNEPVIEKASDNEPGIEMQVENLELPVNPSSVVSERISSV
Human CB1, sequence (P21554 whole entry): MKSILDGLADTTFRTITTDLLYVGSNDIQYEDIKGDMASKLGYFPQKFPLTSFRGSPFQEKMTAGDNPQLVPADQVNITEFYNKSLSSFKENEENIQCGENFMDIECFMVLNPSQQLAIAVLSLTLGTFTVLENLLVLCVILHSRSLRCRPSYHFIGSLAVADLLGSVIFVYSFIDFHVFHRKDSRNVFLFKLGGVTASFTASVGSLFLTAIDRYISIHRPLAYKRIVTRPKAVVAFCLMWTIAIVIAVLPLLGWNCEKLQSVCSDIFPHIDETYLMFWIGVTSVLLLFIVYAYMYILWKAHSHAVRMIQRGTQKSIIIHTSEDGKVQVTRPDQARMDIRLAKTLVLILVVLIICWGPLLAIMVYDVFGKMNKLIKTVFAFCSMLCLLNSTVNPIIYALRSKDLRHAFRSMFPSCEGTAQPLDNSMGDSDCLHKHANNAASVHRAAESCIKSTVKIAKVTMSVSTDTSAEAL
Human μ, sequence (P35372 whole entry): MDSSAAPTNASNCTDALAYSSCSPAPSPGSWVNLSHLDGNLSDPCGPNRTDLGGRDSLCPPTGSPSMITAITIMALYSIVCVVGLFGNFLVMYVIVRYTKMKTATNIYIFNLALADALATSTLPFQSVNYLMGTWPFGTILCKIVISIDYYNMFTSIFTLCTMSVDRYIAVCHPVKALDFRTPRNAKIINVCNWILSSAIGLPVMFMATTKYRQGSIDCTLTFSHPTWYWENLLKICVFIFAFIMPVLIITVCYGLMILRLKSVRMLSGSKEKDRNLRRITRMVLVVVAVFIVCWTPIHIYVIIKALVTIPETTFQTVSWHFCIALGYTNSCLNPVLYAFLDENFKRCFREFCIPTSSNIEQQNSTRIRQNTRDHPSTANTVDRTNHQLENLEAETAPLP
Human β1, sequence (P08588 whole entry): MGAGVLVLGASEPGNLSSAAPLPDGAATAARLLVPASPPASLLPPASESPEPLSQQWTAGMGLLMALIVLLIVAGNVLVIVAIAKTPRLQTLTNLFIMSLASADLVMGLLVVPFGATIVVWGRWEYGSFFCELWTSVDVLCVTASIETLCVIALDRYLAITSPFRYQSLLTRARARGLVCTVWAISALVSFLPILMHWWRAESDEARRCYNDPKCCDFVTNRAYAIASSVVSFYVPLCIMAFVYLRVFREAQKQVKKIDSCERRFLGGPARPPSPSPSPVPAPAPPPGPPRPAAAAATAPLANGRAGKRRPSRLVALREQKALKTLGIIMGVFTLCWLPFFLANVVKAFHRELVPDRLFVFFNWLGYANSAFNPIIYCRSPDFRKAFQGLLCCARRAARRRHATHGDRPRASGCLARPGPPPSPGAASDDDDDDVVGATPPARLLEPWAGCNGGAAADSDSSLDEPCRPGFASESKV

Structure (SMILES): COC(=O)N1CCC(CN2CCC(CNC(=O)c3cccc4[nH]c(C(C)C)nc34)CC2)CC1 [TD-8954, 4-(4-{[(2-isopropyl-1H-benzoimidazole-4-carbonyl)amino]methyl}-piperidin-1-ylmethyl)piperidine-1-carboxylic acid methyl ester]
- Ki (Guinea pig H2): > 1000 nM
- inhibition at 1 µM (Guinea pig H2; [4]): 4%
- Ki [1]: > 1000 nM
- inhibition at 1 µM [1, 4]: -2%
- Ki (Rat 5-HT1B): > 1000 nM
- Ki (Human CB1): > 1000 nM
- Ki (Guinea pig κ kappa): > 1000 nM
- inhibition at 1 µM (Guinea pig κ kappa; [4]): 22%
- pKi (K+V channel): <6
- % Inhibition of specific binding (1 μM) (K+V channel; TD-8954 1 μM): −5%
- Ki (Human 5-HT2C): > 1000 nM
- Ki (Human NK1): > 1000 nM
- inhibition at 1 µM (Human NK1; [4]): -2%
- dose associated with a relaxation response of 0.1 mm (rat esophagus): 0.23 mg/kg
- free plasma AUC0–24 [2]: 36.2 nM/h
- free plasma Cmax [2]: 3.4 nM/h
- onset of contractile activity after dosing [3]: ≤ 10 min
- effect on contractility in the antrum, duodenum, and jejunum ([3]; TD-8954 0.01 and 0.03 mg/kg, tegaserod 0.1 and 0.3 mg/kg): increases in contractility
- Ki (Human μ): > 1000 nM
- Ki (Human β1): > 1000 nM
- Ki (Guinea pig H1): > 1000 nM
- Ki (Human ETB): > 1000 nM
- inhibition at 1 µM (Human ETB; [4]): 5%
- pKi (SK+Ca channel): <6
- % Inhibition of specific binding (1 μM) (SK+Ca channel; TD-8954 1 μM): −4%

Reference: PMC3108484 (Frontiers in Pharmacology, 2011)
